system: voltage operated calcium channels (VOC); experiment: Inhibition of depolarization-induced 45Ca uptake into brain synaptosomes; format: biochemical; conditions: crude synaptosomal preparation (P₂) from male Wistar rat cerebral cortex; depolarization with 145 mM KCl; 15 s uptake; corrected for basal uptake; estimated from dose response curves
Text: The pharmacological properties of the compounds of the invention can be illustrated by determining their capability to inhibit calcium uptake into brain synaptosomes.
Depolarization of neuronal membranes leads to an opening of socalled "voltage operated calcium channels" (VOC) in the membranes which allows a massive influx of calcium from the extracellular space. A crude synaptosomal preparation (socalled P₂ fraction) contains small vesicles surrounded by neuronal membrane and it is possible in such a preparation to study a depolarization-induced opening of VOC.
A male Wistar rat is decapitated and the cerebral cortex removed and homogenized in 10 ml. of ice-cold 0.32 M sucrose using a glass homogenizer with a teflon pestle. All subsequent steps for isolation of synaptosomes are done at 0-4°C. The homogenate is centrifuged at 1000 x g for 10 min and the resulting supernatant is re-centrifuged at 18000 x g for 20 min. This pellet (P₂) is resuspended in 0.32 M sucrose (5 ml per g of original tissue) with a teflon pestle.
The tubes are pre-incubated for 30 min on ice and then for 6 min at 37°C in a water bath.
The incubation is continued for 15 s.
The amount of radioactivity on the filter disc is determined by liquid scintillation spectrometry.
Test substances are dissolved in 10 ml of 48% ethanol at a concentration of 0.44 mg/ml. Dilution are made in 48% ethanol to give final concentrations of 0.1, 0.3, 1, 3 and 10 µg/ml. Experiments are performed in triplicate. Controls for depolarized and nondepolarized samples are included in the assay and test substances are only tested in depolarized samples.
The test value will be given as IC₅₀ (the concentration (µg/ml) of test substance which inhibit 50% of stimulated uptake of ⁴⁵Ca (uptake in depolarized samples corrected for basal uptake in nondepolarized samples )). The IC₅₀ value is estimated from dose response curves.

Row | SMILES | IC₅₀ (concentration of test substance which inhibit 50% of stimulated uptake of ⁴⁵Ca)
1 | CCCCNCCC(Oc1ccc(C#N)cc1)c1cc(C)sc1C.O=C(O)C(=O)O (stereo not shown) [Compound 3, N-butyl-3-(4-cyanophenoxy)-3-(2,5-dimethyl-3-thienyl)propanamine, oxalate] | 6.6 µg/mL
2 | CCCCNCCC(Oc1ccc(C(F)(F)F)cc1)c1cc(C)sc1C.O=C(O)C(=O)O (stereo not shown) [Compound 4, N-butyl-3-(2,5-dimethyl-3-thienyl)-3-(4-trifluoromethylphenoxy)propanamine, oxalate] | 3.8 µg/mL
3 | Cc1coc(C)c1C(CCN(C)C)Oc1ccc(C(F)(F)F)cc1.O=C(O)C(=O)O (stereo not shown) [Compound 11, N,N-Dimethyl-3-(2,4-dimethyl-3-furyl)-3-(4-trifluoromethylphenoxy)propaneamine, oxalate] | 10.3 µg/mL
4 | FC(F)(F)c1ccc(OC(CCN2CCCCC2)c2ccc(Cl)s2)cc1.O=C(O)C(=O)O (stereo not shown) [Compound 15, 1-(3-(5-chloro-2-thienyl)-3-(4-trifluoromethylphenoxy)propyl)piperidine, oxalate] | 2.4 µg/mL
5 | N#Cc1cccc(OC(CCN2CCCCC2)c2ccc(Cl)s2)c1.O=C(O)C(=O)O (stereo not shown) [Compound 16, 1-(3-(5-chloro-2-thienyl)-3-(3-cyanophenoxy)propyl)piperidine, oxalate] | 12.0 µg/mL
6 | FC(F)(F)c1ccccc1OC(CCN1CCCCC1)c1ccc(Cl)s1.O=C(O)C(=O)O (stereo not shown) [Compound 17, 1-(3-(5-chloro-2-thienyl)-3-(2-trifluoromethylphenoxy)propyl)piperidine, oxalate] | 3.0 µg/mL
7 | FC(F)(F)c1cccc(OC(CCN2CCCCC2)c2ccc(Cl)s2)c1.O=C(O)C(=O)O (stereo not shown) [Compound 18, 1-(3-(5-chloro-2-thienyl)-3-(3-trifluoromethylphenoxy)propyl)piperidine, oxalate] | 7.3 µg/mL
8 | CSc1ccc(OC(CCN(C)C)c2ccc(Br)s2)cc1.O=C(O)C(=O)O (stereo not shown) [Compound 19, 3-(5-Bromo-2-thienyl)-N,N-dimethyl-3-(4-(methylthio)phenoxy)propanamine, oxalate] | 4.4 µg/mL
9 | CN(C)CCC(Oc1ccc(Oc2ccccc2)cc1)c1ccc(Br)s1.O=C(O)C(=O)O (stereo not shown) [Compound 21, 3-(5-Bromo-2-thienyl)-N,N-dimethyl-3-(4-phenoxyphenoxy)propanamine, oxalate] | 5.9 µg/mL
10 | CN(C)CCC(Oc1ccc(-c2ccccc2)cc1)c1ccc(Br)s1.O=C(O)C(=O)O (stereo not shown) [Compound 22, 3-(5-Bromo-2-thienyl)-N,N-dimethyl-3-(4-phenylphenoxy)propanamine, oxalate] | 4.4 µg/mL
11 | CN(C)CCC(Oc1ccc(C(F)(F)F)cc1)c1cccs1.O=C(O)C(=O)O (stereo not shown) [Compound 23, N,N-dimethyl-3-(2-thienyl)-3-(4-trifluoromethylphenoxy)propanamine, oxalate] | 8.6 µg/mL
12 | FC(F)(F)c1ccc(OC(CCN2CCCCC2)c2cccs2)cc1.O=C(O)C(=O)O (stereo not shown) [Compound 24, 1-(3-(2-Thienyl)-3-(4-trifluoromethylphenoxy)propyl)piperidine, oxalate] | 5.8 µg/mL
13 | CN(C)CCC(Oc1ccc(C(F)(F)F)cc1)c1ccsc1.Cl (stereo not shown) [Compound 27, N,N-dimethyl-3-(3-thienyl)-3-(4-trifluoromethylphenoxy)propanamine, hydrochloride] | 13 µg/mL

From patent EP0571685A1, “Aryloxyheteroarylpropylamines, their preparation and use” (NOVO NORDISK A/S, priority 1992, dated 1993)
